Patent US20210392895A1, “NOVEL OXADIAZOLES” (PI INDUSTRIES LIMITED, priority 2018, published 2021)

How the values were obtained:
Pyricularia oryzae = assay: microbe, parasite or virus in culture; assay type: cell-based; details: 168 h, read-out: control
Phakopsora pachyrhizi = Phakopsora pachyrhizi test in soybean (greenhouse, preventive activity, disease severity rating); assay type: in vivo; details: preventive spray on soybean, compared to the untreated check
Description: To test the preventive activity of compounds, healthy young soybean plants, raised in the greenhouse, were sprayed with the active compound solution at the stated application rates inside spray cabinets using hallowcone nozzles. One day after treatment, the plants were inoculated with a suspension containing 2.1×10^6 Phakopsora pachyrhizi spores. The inoculated plants were then kept in the greenhouse chamber at 25° C. temperature and 90% relative humidity for disease expression. A visual assessment of the compound's performance was carried out by rating the disease severity (0-100% scale) on treated plants on 3, 7, 10 and 15 days after application. Efficacy (% control) of the compounds was calculated by comparing the disease rating in the treatment with the one of the untreated control. The treated plants were also assessed for plant compatibility by recording symptoms like necrosis, chlorosis and stunting.

Compound O=C(c1ccccc1F)N1CC[C@H](Oc2ccc(-c3noc(C(F)(F)F)n3)cn2)C1 [Compound 45, (S)-(2-fluorophenyl)(3-((5-(5-(trifluoromethyl)-1,2,4-oxadiazol-3-yl)pyridin-2-yl)oxy)pyrrolidin-1-yl)methanone] has an inhibition of growth at 300 ppm (Pyricularia oryzae) of over 70% and a pest or weed control at 500 ppm (Phakopsora pachyrhizi) of over 70%.
Compound O=C(c1ccncc1)N1CC[C@@H](Oc2ccc(-c3noc(C(F)(F)F)n3)cn2)C1 [Compound 78, (R)-pyridin-4-yl(3-((5-(5-(trifluoromethyl)-1,2,4-oxadiazol-3-yl)pyridin-2-yl)oxy)pyrrolidin-1-yl)methanone] has an inhibition of growth at 300 ppm (Pyricularia oryzae) of over 70%.
Compound CN(c1ccc(-c2noc(C(F)(F)F)n2)cc1)C1CCN(C(=O)OC(C)(C)C)C1 (stereo not shown) [Compound 167, tert-butyl 3-(methyl(4-(5-(trifluoromethyl)-1,2,4-oxadiazol-3-yl)phenyl)amino)pyrrolidine-1-carboxylate] has an inhibition of growth at 300 ppm (Pyricularia oryzae) of over 70%.
In the case of Cc1ccc(C(=O)N2CCC(Oc3cccc(-c4noc(C(F)(F)F)n4)c3)C2)cc1 (stereo not shown) [Compound 135, p-tolyl(3-(3-(5-(trifluoromethyl)-1,2,4-oxadiazol-3-yl)phenoxy)pyrrolidin-1-yl)methanone], the inhibition of growth at 300 ppm (Pyricularia oryzae) is reported as over 70%.
Work on CC(=O)N1CC(N(c2ccc(-c3noc(C(F)(F)F)n3)cc2)c2ccc(-c3noc(C(F)(F)F)n3)cc2)C1 [Compound 90, 1-(3-(bis(4-(5-(trifluoromethyl)-1,2,4-oxadiazol-3-yl)phenyl)amino)azetidin-1-yl)ethan-1-one] yielded an inhibition of growth at 300 ppm (Pyricularia oryzae) of over 70%.
For O=C(c1ccccc1)N1CC[C@@H](Sc2ccc(-c3noc(C(F)(F)F)n3)cc2)C1 [Compound 177, (R)-phenyl(3-((4-(5-(trifluoromethyl)-1,2,4-oxadiazol-3-yl)phenyl)thio)pyrrolidin-1-yl)methanone], the inhibition of growth at 300 ppm (Pyricularia oryzae) was over 70%.
COc1cccc(C(=O)N2CC(Oc3ccc(-c4noc(C(F)(F)F)n4)cc3)C2)c1 [Compound 17, (3-methoxyphenyl)(3-(4-(5-(trifluoromethyl)-1,2,4-oxadiazol-3-yl)phenoxy)azetidin-1-yl)methanone] gave an inhibition of growth at 300 ppm (Pyricularia oryzae) of over 70% and a pest or weed control at 500 ppm (Phakopsora pachyrhizi) of over 70%.
In the case of O=C(c1ccccc1F)N1CCC(Oc2ccc(-c3noc(C(F)(F)F)n3)cc2)CC1 [Compound 92, (2-fluorophenyl)(4-(4-(5-(trifluoromethyl)-1,2,4-oxadiazol-3-yl)phenoxy)piperidin-1-yl)methanone], the inhibition of growth at 300 ppm (Pyricularia oryzae) is reported as over 70%.
With COc1cccc(S(=O)(=O)N2CC(N(C)c3ccc(-c4noc(C(F)(F)F)n4)cc3)C2)c1 [Compound 198, 1-((3-methoxyphenyl)sulfonyl)-N-methyl-N-(4-(5-(trifluoromethyl)-1,2,4-oxadiazol-3-yl)phenyl)azetidin-3-amine] the inhibition of growth at 300 ppm (Pyricularia oryzae) was over 70%.
Work on CCS(=O)(=O)N1CC[C@H](Oc2ccc(-c3noc(C(F)(F)F)n3)cc2)C1 [Compound 40, (S)-3-(4-((1-(ethylsulfonyl)pyrrolidin-3-yl)oxy)phenyl)-5-(trifluoromethyl)-1,2,4-oxadiazole] yielded an inhibition of growth at 300 ppm (Pyricularia oryzae) of over 70%.
For O=C(c1ccncc1)N1CCC(Oc2ccc(-c3noc(C(F)(F)F)n3)cc2)CC1 [Compound 179, pyridin-4-yl(4-(4-(5-(trifluoromethyl)-1,2,4-oxadiazol-3-yl)phenoxy)piperidin-1-yl)methanone], the inhibition of growth at 300 ppm (Pyricularia oryzae) was over 70%.
Compound Cc1cccc(C(=O)N2CC[C@@H](Sc3ccc(-c4noc(C(F)(F)F)n4)cc3)C2)c1 [Compound 172, (R)-m-tolyl(3-((4-(5-(trifluoromethyl)-1,2,4-oxadiazol-3-yl)phenyl)thio)pyrrolidin-1-yl)methanone] has an inhibition of growth at 300 ppm (Pyricularia oryzae) of over 70%.
Compound COc1ccc(C(=O)N2CC[C@H](Oc3ccc(-c4noc(C(F)(F)F)n4)nc3)C2)cc1 [Compound 29, (S)-(4-methoxyphenyl)(3-((6-(5-(trifluoromethyl)-1,2,4-oxadiazol-3-yl)pyridin-3-yl)oxy)pyrrolidin-1-yl)methanone] has a pest or weed control at 500 ppm (Phakopsora pachyrhizi) of over 70%.
CC(C)(C)OC(=O)N1CC(N(c2ccc(-c3noc(C(F)(F)F)n3)cc2)c2ccc(-c3noc(C(F)(F)F)n3)cc2)C1 [Compound 82, tert-butyl 3-(bis(4-(5-(trifluoromethyl)-1,2,4-oxadiazol-3-yl)phenyl)amino)azetidine-1-carboxylate] showed a pest or weed control at 500 ppm (Phakopsora pachyrhizi) of over 70%.
CN(c1ccc(-c2noc(C(F)(F)F)n2)cc1)C1CN(C(=O)c2ccc(C(F)(F)F)cc2)C1 [Compound 101, (3-(methyl(4-(5-(trifluoromethyl)-1,2,4-oxadiazol-3-yl)phenyl)amino)azetidin-1-yl)(4-(trifluoromethyl)phenyl)methanone] gave a pest or weed control at 500 ppm (Phakopsora pachyrhizi) of over 70%.
With CCCS(=O)(=O)N1CC[C@H](Oc2ccc(-c3noc(C(F)(F)F)n3)cc2)C1 [Compound 115, (S)-3-(4-((1-(propylsulfonyl)pyrrolidin-3-yl)oxy)phenyl)-5-(trifluoromethyl)-1,2,4-oxadiazole] the pest or weed control at 500 ppm (Phakopsora pachyrhizi) was over 70%.
Compound CC(C)(C)OC(=O)N1CCC(Oc2cccc(-c3noc(C(F)(F)F)n3)c2)C1 (stereo not shown) [Compound 127, tert-butyl 3-(3-(5-(trifluoromethyl)-1,2,4-oxadiazol-3-yl)phenoxy)pyrrolidine-1-carboxylate] has a pest or weed control at 500 ppm (Phakopsora pachyrhizi) of over 70%.
O=C(c1ccc(OC(F)(F)F)cc1)N1CC[C@H](Oc2ccc(-c3noc(C(F)(F)F)n3)cc2)C1 [Compound 36, (S)-(4-(trifluoromethoxy)phenyl)(3-(4-(5-(trifluoromethyl)-1,2,4-oxadiazol-3-yl)phenoxy)pyrrolidin-1-yl)methanone] was tested, and the pest or weed control at 500 ppm (Phakopsora pachyrhizi) was over 70%.
For CN(c1ccc(-c2noc(C(F)(F)F)n2)cc1)C1CN(C(=O)c2cccc(Cl)c2)C1 [Compound 88, (3-chlorophenyl)(3-(methyl(4-(5-(trifluoromethyl)-1,2,4-oxadiazol-3-yl)phenyl)amino)azetidin-1-yl)methanone], the pest or weed control at 500 ppm (Phakopsora pachyrhizi) was over 70%.
Compound O=C(c1ccc(C(F)(F)F)cc1)N1CCC(Oc2ccc(-c3noc(C(F)(F)F)n3)cc2)CC1 [Compound 102, (4-(4-(5-(trifluoromethyl)-1,2,4-oxadiazol-3-yl)phenoxy)piperidin-1-yl)(4-(trifluoromethyl)phenyl)methanone] has a pest or weed control at 500 ppm (Phakopsora pachyrhizi) of over 70%.
Work on O=S(=O)(c1ccc(C(F)(F)F)cc1)N1CC[C@H](Oc2ccc(-c3noc(C(F)(F)F)n3)cn2)C1 [Compound 109, (S)-5-(trifluoromethyl)-3-(6-((1-((4-(trifluoromethyl)phenyl)sulfonyl)pyrrolidin-3-yl)oxy)pyridin-3-yl)-1,2,4-oxadiazole] yielded a pest or weed control at 500 ppm (Phakopsora pachyrhizi) of over 70%.
Compound CN(c1ccc(-c2noc(C(F)(F)F)n2)cc1)C1CN(C(=O)c2ccc(F)cc2)C1 [Compound 124, (4-fluorophenyl)(3-(methyl(4-(5-(trifluoromethyl)-1,2,4-oxadiazol-3-yl)phenyl)amino)azetidin-1-yl)methanone] has a pest or weed control at 500 ppm (Phakopsora pachyrhizi) of over 70%.
With CS(=O)(=O)N1CC[C@H](Oc2ccc(-c3noc(C(F)(F)F)n3)cn2)C1 [Compound 111, (S)-3-(6-((1-(methylsulfonyl)pyrrolidin-3-yl)oxy)pyridin-3-yl)-5-(trifluoromethyl)-1,2,4-oxadiazole] the pest or weed control at 500 ppm (Phakopsora pachyrhizi) was over 70%.
O=C(c1cccc(F)c1)N1CC[C@H](Oc2ccc(-c3noc(C(F)(F)F)n3)nc2)C1 [Compound 30, (S)-(3-fluorophenyl)(3-((6-(5-(trifluoromethyl)-1,2,4-oxadiazol-3-yl)pyridin-3-yl)oxy)pyrrolidin-1-yl)methanone] was tested, and the pest or weed control at 500 ppm (Phakopsora pachyrhizi) was over 70%.
With O=S(=O)(c1cccc(Cl)c1)N1CC[C@H](Oc2ccc(-c3noc(C(F)(F)F)n3)cn2)C1 [Compound 108, (S)-3-(6-((1-((3-chlorophenyl)sulfonyl)pyrrolidin-3-yl)oxy)pyridin-3-yl)-5-(trifluoromethyl)-1,2,4-oxadiazole] the pest or weed control at 500 ppm (Phakopsora pachyrhizi) was over 70%.
Work on O=C(Cc1ccc(Cl)cc1)N1CCC(Oc2ccc(-c3noc(C(F)(F)F)n3)cc2)CC1 [Compound 145, 2-(4-chlorophenyl)-1-(4-(4-(5-(trifluoromethyl)-1,2,4-oxadiazol-3-yl)phenoxy)piperidin-1-yl)ethan-1-one] yielded a pest or weed control at 500 ppm (Phakopsora pachyrhizi) of over 70%.
For COc1ccc(C(=O)N2CCC(Oc3cccc(-c4noc(C(F)(F)F)n4)c3)C2)cc1 (stereo not shown) [Compound 146, (4-methoxyphenyl)(3-(3-(5-(trifluoromethyl)-1,2,4-oxadiazol-3-yl)phenoxy)pyrrolidin-1-yl)methanone], the pest or weed control at 500 ppm (Phakopsora pachyrhizi) was over 70%.
O=C(c1cccc(Br)c1)N1CC(Oc2ccc(-c3noc(C(F)(F)F)n3)cc2)C1 [Compound 16, (3-bromophenyl)(3-(4-(5-(trifluoromethyl)-1,2,4-oxadiazol-3-yl)phenoxy)azetidin-1-yl)methanone] was tested, and the pest or weed control at 500 ppm (Phakopsora pachyrhizi) was over 70%.
O=S(=O)(C1CC1)N1CC[C@H](Oc2ccc(-c3noc(C(F)(F)F)n3)cc2)C1 [Compound 41, (S)-3-(4-((1-(cyclopropylsulfonyl)pyrrolidin-3-yl)oxy)phenyl)-5-(trifluoromethyl)-1,2,4-oxadiazole] showed a pest or weed control at 500 ppm (Phakopsora pachyrhizi) of over 70%.
With N#Cc1ccc(S(=O)(=O)N2CC[C@H](Oc3ccc(-c4noc(C(F)(F)F)n4)cc3)C2)cc1 [Compound 121, (S)-4-((3-(4-(5-(trifluoromethyl)-1,2,4-oxadiazol-3-yl)phenoxy)pyrrolidin-1-yl)sulfonyl)benzonitrile] the pest or weed control at 500 ppm (Phakopsora pachyrhizi) was over 70%.
For O=S(=O)(c1ccccc1)N1CC[C@H](Oc2ccc(-c3noc(C(F)(F)F)n3)cc2)C1 [Compound 25, (S)-3-(4-((1-(phenylsulfonyl)pyrrolidin-3-yl)oxy)phenyl)-5-(trifluoromethyl)-1,2,4-oxadiazole], the pest or weed control at 500 ppm (Phakopsora pachyrhizi) was over 70%.
O=S(=O)(c1cccc(F)c1)N1CC[C@H](Oc2ccc(-c3noc(C(F)(F)F)n3)cc2)C1 [Compound 26, (S)-3-(4-((1-((3-fluorophenyl)sulfonyl)pyrrolidin-3-yl)oxy)phenyl)-5-(trifluoromethyl)-1,2,4-oxadiazole] was tested, and the pest or weed control at 500 ppm (Phakopsora pachyrhizi) was over 70%.
